Data: ChEMBL document CHEMBL1201862, “PubChem BioAssay data set” (2004)
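Briefly, cells in 96-well plates were exposed to five compound concentrations for 48 h, and endpoints were estimated by linear interpolation. Here, GI50 denotes the concentration required for 50% inhibition of growth.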 Activity calls are given as the source filed them. Rule as the data show it: active = GI50 up to about 1.1 µM and inactive = higher.

What was measured:
Assay in all cases: NCI-60 cell line screen, 48 h
[1] = tested on: NCI-H226
[2] = tested on: SNB-19
[3] = tested on: HCT-116
[4] = tested on: MDA-MB-435
[5] = tested on: SNB-75
[6] = tested on: NCI-H460
[7] = tested on: UACC-257
[8] = tested on: PC-3
[9] = tested on: MCF7
[10] = tested on: OVCAR-4
[11] = tested on: COLO 205
[12] = tested on: OVCAR-3
[13] = tested on: HOP-62
[14] = tested on: UACC-62
[15] = tested on: HCC 2998
[16] = tested on: U-251
[17] = tested on: OVCAR-8
[18] = tested on: SF-539
[19] = tested on: UO-31

Measured: GI50

Nc1nc(Cl)nc(NCc2ccccc2)n1
inactive: [1] > 100 µM | [2] > 100 µM | [3] > 100 µM | [4] > 100 µM | [5] > 100 µM | [6] > 100 µM | [7] > 100 µM | [8] > 100 µM | [9] > 100 µM | [10] > 100 µM | [11] > 100 µM | [12] > 100 µM | [13] > 100 µM | [14] > 100 µM | [15] > 100 µM | [16] > 100 µM | [17] > 100 µM | [18] > 100 µM

CC(=O)c1cc2c(Br)cccc2oc1=O
inactive: [1] > 100 µM | [2] > 100 µM | [3] 66.7 µM | [4] 54.5 µM | [5] > 100 µM | [6] > 100 µM | [7] > 100 µM | [8] > 100 µM | [9] > 100 µM | [10] > 100 µM | [11] > 100 µM | [12] > 100 µM | [13] > 100 µM | [14] > 100 µM | [15] > 100 µM | [16] 63.4 µM | [17] > 100 µM | [18] > 100 µM

CC/C(=C\c1ccc(Cl)c(Cl)c1)[N+](=O)[O-]
inactive: [1] 2.23 µM | [2] 2.36 µM | [3] 3.66 µM | [4] 1.71 µM | [5] 3.84 µM | [6] 2.42 µM | [7] 1.94 µM | [8] 2.23 µM | [9] 1.15 µM | [10] 3 µM | [11] 1.72 µM | [13] 2.96 µM | [14] 1.93 µM | [15] 1.7 µM | [19] 1.88 µM | [16] 1.86 µM | [17] 1.68 µM | [18] 1.89 µM

COC(=O)c1ccc(Nc2nc3[nH]cnc3c(=O)[nH]2)cc1
inactive: [1] > 100 µM | [2] > 100 µM | [3] > 100 µM | [4] 51.9 µM | [5] > 100 µM | [6] > 100 µM | [7] > 100 µM | [8] > 100 µM | [9] > 100 µM | [10] > 100 µM | [11] > 100 µM | [12] 54.6 µM | [13] > 100 µM | [14] > 100 µM | [15] > 100 µM | [16] > 100 µM | [17] > 100 µM | [18] 67.3 µM

COC(=O)NN=C(c1ccc(Cl)cc1)c1ccc(Cl)cc1
inactive: [1] > 100 µM | [2] > 100 µM | [3] > 100 µM | [4] > 100 µM | [5] 87.9 µM | [6] > 100 µM | [7] > 100 µM | [8] > 100 µM | [9] > 100 µM | [10] 40.3 µM | [11] 51.2 µM | [12] > 100 µM | [14] > 100 µM | [15] > 100 µM | [19] > 100 µM | [16] > 100 µM | [17] > 100 µM | [18] 93.8 µM

CC(=O)c1cc(S(=O)(=O)c2ccc(O)c(C(C)=O)c2)ccc1O
inactive: [1] > 100 µM | [2] 68.5 µM | [3] 92 µM | [4] 51.3 µM | [6] 84.9 µM | [7] > 100 µM | [8] 75.5 µM | [9] 67.6 µM | [10] > 100 µM | [11] > 100 µM | [12] > 100 µM | [13] > 100 µM | [14] 18.4 µM | [15] 58.2 µM | [19] 28.4 µM | [16] 31.6 µM | [17] 70 µM | [18] 30.2 µM

COC(=O)[C@H](CNC(=O)/C=C/c1ccc(OC(C)=O)c(OC(C)=O)c1)NC(=O)/C=C/c1ccc(OC(C)=O)c(OC(C)=O)c1
inactive: [1] > 100 µM | [2] > 100 µM | [3] > 100 µM | [4] > 100 µM | [5] > 100 µM | [6] > 100 µM | [7] > 100 µM | [8] > 100 µM | [9] > 100 µM | [10] > 100 µM | [11] > 100 µM | [12] > 100 µM | [13] > 100 µM | [14] > 100 µM | [15] > 100 µM | [16] > 100 µM | [17] > 100 µM | [18] > 100 µM

O=C1CC(NC(=O)C(F)(F)F)c2c(Br)sc(N3CCC(c4ccccc4)CC3)c21 (configuration not stated)
inactive: [1] 28.4 µM | [2] 20.8 µM | [3] 11.1 µM | [4] > 100 µM | [5] 69.3 µM | [6] 13.7 µM | [7] 13.4 µM | [8] 25.6 µM | [9] 18.7 µM | [10] 11.5 µM | [11] > 100 µM | [12] 6.25 µM | [14] 20.4 µM | [15] > 100 µM | [19] 8.77 µM | [16] 6.76 µM | [17] 24.9 µM | [18] 44.6 µM

[O-][S+](CCc1ccccc1)Nc1ccccc1 (configuration not stated)
inactive: [1] > 100 µM | [2] > 100 µM | [3] > 100 µM | [4] > 100 µM | [5] > 100 µM | [6] > 100 µM | [7] 99.3 µM | [8] > 100 µM | [9] > 100 µM | [11] > 100 µM | [12] > 100 µM | [13] > 100 µM | [15] > 100 µM | [19] > 100 µM | [16] > 100 µM | [17] > 100 µM | [18] > 100 µM

C=CC1ON(Cc2ccccc2)CCc2cc(OC)c(OC)cc21 (configuration not stated)
inactive: [1] > 100 µM | [2] > 100 µM | [3] 45.2 µM | [4] 24.5 µM | [5] 72.4 µM | [6] 57 µM | [7] 52.6 µM | [8] 48.9 µM | [9] > 100 µM | [11] 41.6 µM | [12] 35.4 µM | [13] 85.5 µM | [14] 56.1 µM | [15] 35.5 µM | [19] 25.5 µM | [16] 66.5 µM | [17] > 100 µM | [18] 83.4 µM

O=[N+]([O-])c1ccc(Oc2c(Cl)cc(S(=O)(=O)N/C(=N\O)Nc3ccc(Cl)cc3)cc2Cl)c(Cl)c1
inactive: [1] 25.3 µM | [2] 16.9 µM | [3] 13.4 µM | [4] 16.6 µM | [6] 15.6 µM | [7] 15.6 µM | [8] 13.3 µM | [9] 17.2 µM | [10] 11.7 µM | [11] 18.8 µM | [12] 12.2 µM | [13] 16.5 µM | [14] 14.4 µM | [15] 16 µM | [19] 13.7 µM | [16] 15.4 µM | [17] 22.8 µM | [18] 20.3 µM
